Measured values published in US4663334A, “Heteroaromatic acetylenes useful as antihypertensive agents” (McNeilab, Inc., priority 1985, dated 1987).
Where a name gives a salt, the structure may show the parent alone.

Tested on: spontaneously hypertensive rats
Assay: Spontaneously Hypertensive Rat (SHR) test
Type: in vivo
Details: oral dose 30 mg/kg
From the text: The activity of compounds of formula (I) for the treatment of hypertension may be determined using the Spontaneously Hypertensive Rat (SHR) test as described below.
In this test, the arterial pressure of adult spontaneously hypertensive rats (Charles River) is monitored directly via an aortic cannula. The SH rats are anesthetized with an inhalation anesthetic (ether). The left carotid artery is isolated and cannulated. The tip of the cannula is advanced to the aorta and the cannula is exteriorized behind the neck at the level of the scapula. Animals are placed in individual cages and allowed to recover from the anesthetic and are kept unrestrained. The arterial cannula is connected to the pressure transducer which is attached to the recorder. The test compounds are administered to at least 3 rats at doses selected in the range of 0.1 to 100 mg/kg of body weight by intraperitoneal (i.p.) or oral (p.o.) routes of administration. The arterial pressure and heart rate are monitored for a minimum of 24 hours. A test compound is considered to be active as an antihypertensive agent if the mean arterial pressure (MAP) indicates a fall of >15 mm of Hg. Each animal serves as its own control.

CC(C)(C)NCC(O)COc1ccccc1C#Cc1ccncc1.O=C(O)/C=C/C(=O)O (stereo not drawn) [Example 1, 1-[(1,1-Dimethylethyl)amino]-3-[2-(4-pyridinylethynyl)phenoxy]-2-propanol (E)-2-Butenedioate]
duration of blood pressure reduction: 7.5 h
heart rate change: -87 beats/min
reduction of hypertensive blood pressure (mean arterial pressure): -46 mm Hg

CC(C)(C)NCC(O)COc1ccccc1C#Cc1cccnc1 (stereo not drawn) [Example 2, 1-[(1,1-Dimethylethyl)amino]-3-[2-(3-pyridinylethynyl)phenoxy]-2-propanol Hydrochloride Hydrate (4:4:1)]
duration of blood pressure reduction: 10.5 h
heart rate change: -41 beats/min
reduction of hypertensive blood pressure (mean arterial pressure): -54 mm Hg
